Assay results published in patent publication US20030059878A1, “Novel purinoceptor and gene thereof” (TANABE SEIYAKU CO., LTD, priority 2001, published 2003).

Biological target: T1, fusion protein of TG0022 protein and Giαl (^351Cys→Ile) (Homo sapiens, UniProt P63096+Q9BPV8, C351I)
T1 construct: made in house; host or cells: Sf9 (Spodoptera frugiperda) insect cells, baculovirus vector pVL1392; membrane fraction
Experiment: [35S]GTPγS binding to membrane fraction containing fusion protein of TG0022 protein and Giαl (351Cys→Ile)
Assay type: biochemical
Conditions: Sf9 membrane fraction, TG0022-Giαl (351Cys→Ile) fusion; relative to control without test compound (FIG. 4)
Source text: It was assumed that TG0022 protein would be a G protein-coupled receptor as is disclosed in Example 1. Then, by using a membrane fraction containing a fusion protein of TG0022 protein and G protein, the identification of ligand was done by a method of detecting a ligand-dependent binding with GTPγS (guanosine 5′-O-(3-thiotriphosphate)) (Wenzel-Seifert et al., Mol. Pharmacol., Vol. 58, pp. 954-966, 2000; Bahia et al., Biochemistry, Vol. 37, pp. 11555-11562, 1998).
The Sf9 cells were inoculated in a 10 cm plate which was coated with collagen so as to be about 70% confluency, and thereto were added Virus Solution III obtained above (100 μl) and a medium (12 ml), and the mixture was cultivated at 27° C. for 4 days. […]
The membrane fraction obtained in the above (2) (450 μl) was suspended into a reaction buffer (7.54 ml), and thereto was added GDP (10 mM, 10 μl). […] The filter was washed with a cooled reaction buffer (200 μl) three times, and the amount of [^35S]GTPγS (amount bound to the membrane fraction) on the filter was measured by a liquid scintillator. […] GTPγS was calculated by reducting an amount of non-specifically bound [^35S] GTPγS (which was measured in the presence of 10 μM GTPγS) from the amount of [^35S]GTPγS obtained above.

T1 sequence (Q9BPV8+P63096 fused P63096:C351I): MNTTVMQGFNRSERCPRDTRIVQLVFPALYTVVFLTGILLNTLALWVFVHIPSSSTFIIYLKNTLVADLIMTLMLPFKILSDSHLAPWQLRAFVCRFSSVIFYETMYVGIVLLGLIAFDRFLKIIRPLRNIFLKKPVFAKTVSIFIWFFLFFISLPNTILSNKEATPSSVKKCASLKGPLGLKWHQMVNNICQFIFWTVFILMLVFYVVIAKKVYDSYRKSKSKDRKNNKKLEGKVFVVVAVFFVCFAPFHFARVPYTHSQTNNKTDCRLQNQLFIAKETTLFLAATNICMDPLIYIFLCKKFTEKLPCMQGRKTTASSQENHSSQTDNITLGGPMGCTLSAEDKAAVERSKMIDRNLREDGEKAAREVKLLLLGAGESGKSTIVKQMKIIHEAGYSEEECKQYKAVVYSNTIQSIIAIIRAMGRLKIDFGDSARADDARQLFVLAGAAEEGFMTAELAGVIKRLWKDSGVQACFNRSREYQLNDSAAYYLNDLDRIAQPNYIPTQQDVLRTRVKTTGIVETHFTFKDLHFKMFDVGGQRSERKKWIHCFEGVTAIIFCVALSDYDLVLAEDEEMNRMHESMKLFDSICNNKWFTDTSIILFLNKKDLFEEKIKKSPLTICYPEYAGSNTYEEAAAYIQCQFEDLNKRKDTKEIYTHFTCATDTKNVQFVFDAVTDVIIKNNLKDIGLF

specific binding amount of [^35S] GTPγS	Structure (SMILES)
increased dependent on the concentration	Nc1ncnc2c1ncn2[C@@H]1O[C@H](COP(=O)(O)OP(=O)(O)OP(=O)(O)O)[C@@H](O)[C@H]1O [ATP]
increased dependent on the concentration	Nc1ncnc2c1ncn2[C@@H]1O[C@H](COP(=O)(O)OP(=O)(O)O)[C@@H](O)[C@H]1O [ADP]
